Measured values from ChEMBL document CHEMBL1201862, “PubChem BioAssay data set” (2004).
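These data come from cells grown in 96-well plates and exposed to compound for 48 hours at five concentrations. At the GI50, growth is halved.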 Calls of active or inactive are those of the source. Cut-off read from the data, not from the text of the source: active = GI50 up to about 1.1 µM and inactive = higher.

Experiments:
Experiment in all cases: DTP human tumour cell line panel, 48 h
MCF7 = system: MCF7
BT-549 = system: BT-549
Hs-578T = system: Hs-578T
MOLT-4 = system: MOLT-4
HCT-116 = system: HCT-116
SN12C = system: SN12C
RXF 393 = system: RXF 393
MDA-MB-435 = system: MDA-MB-435
T47D = system: T47D
COLO 205 = system: COLO 205
SK-OV-3 = system: SK-OV-3
HL-60 = system: HL-60
A498 = system: A498
SF-295 = system: SF-295
SK-MEL-28 = system: SK-MEL-28
HOP-62 = system: HOP-62
U-251 = system: U-251
OVCAR-3 = system: OVCAR-3
K562 = system: K562

Structure (SMILES)	GI50 (MCF7)	GI50 (BT-549)	GI50 (Hs-578T)	GI50 (MOLT-4)	GI50 (HCT-116)	GI50 (SN12C)	GI50 (RXF 393)	GI50 (MDA-MB-435)	GI50 (T47D)	GI50 (COLO 205)	GI50 (SK-OV-3)	GI50 (HL-60)	GI50 (A498)	GI50 (SF-295)	GI50 (SK-MEL-28)	GI50 (HOP-62)	GI50 (U-251)	GI50 (OVCAR-3)	GI50 (K562)
CC1(CC(=O)OC(C#C[Si](C)(C)C)Cc2ccccc2)OCCO1 (stereo unspecified)	> 100 µM (inactive)	> 100 µM (inactive)	> 100 µM (inactive)	> 100 µM (inactive)	> 100 µM (inactive)	> 100 µM (inactive)	> 100 µM (inactive)	> 100 µM (inactive)	> 100 µM (inactive)	> 100 µM (inactive)	> 100 µM (inactive)	> 100 µM (inactive)	> 100 µM (inactive)	> 100 µM (inactive)	> 100 µM (inactive)	> 100 µM (inactive)	> 100 µM (inactive)		
COC(=O)c1ccc(CCC2=CC(=O)C=CC2=O)cc1	6.59 µM (inactive)	12 µM (inactive)	24.8 µM (inactive)	1.63 µM (inactive)	7.8 µM (inactive)	24.5 µM (inactive)	12.5 µM (inactive)	11.7 µM (inactive)	2.94 µM (inactive)	7.03 µM (inactive)		0.728 µM (active)	18.7 µM (inactive)	16.6 µM (inactive)	9.42 µM (inactive)	19.1 µM (inactive)	11.2 µM (inactive)	6.85 µM (inactive)	2.37 µM (inactive)
O=[N+]([O-])c1ccc(NN=C2CN3CCN(C2)c2ccccc23)c([N+](=O)[O-])c1	> 100 µM (inactive)	> 100 µM (inactive)	> 100 µM (inactive)	> 100 µM (inactive)	> 100 µM (inactive)	> 100 µM (inactive)		> 100 µM (inactive)	> 100 µM (inactive)	> 100 µM (inactive)	> 100 µM (inactive)		> 100 µM (inactive)	> 100 µM (inactive)	> 100 µM (inactive)	> 100 µM (inactive)	> 100 µM (inactive)	> 100 µM (inactive)	> 100 µM (inactive)
Cc1nnc(N)nc1/C=C\c1ccc(Cl)cc1Cl	32.8 µM (inactive)	72.3 µM (inactive)	29.2 µM (inactive)	41.4 µM (inactive)	26.9 µM (inactive)	61.5 µM (inactive)	39.7 µM (inactive)	33.5 µM (inactive)	55.3 µM (inactive)	20.9 µM (inactive)	45.5 µM (inactive)	27 µM (inactive)	> 100 µM (inactive)	23.4 µM (inactive)	55.5 µM (inactive)	20.3 µM (inactive)	34.8 µM (inactive)		77.8 µM (inactive)
COc1ccccc1C(=O)N(C)c1ccc(Cl)c(C(=O)OC(C)C)c1	62.4 µM (inactive)	33 µM (inactive)	> 100 µM (inactive)	39.7 µM (inactive)	40.3 µM (inactive)	> 100 µM (inactive)		29.4 µM (inactive)	23.8 µM (inactive)	42.9 µM (inactive)	45.5 µM (inactive)		70.6 µM (inactive)	30.6 µM (inactive)	49.7 µM (inactive)		67.8 µM (inactive)	71.3 µM (inactive)	
COc1cc(OC)cc(OCc2nc3cc(C(F)(F)F)ccc3nc2-c2ccccc2)c1	> 100 µM (inactive)	> 100 µM (inactive)	69.2 µM (inactive)	> 100 µM (inactive)	> 100 µM (inactive)	> 100 µM (inactive)	> 100 µM (inactive)	> 100 µM (inactive)	48 µM (inactive)	> 100 µM (inactive)	> 100 µM (inactive)	> 100 µM (inactive)		> 100 µM (inactive)	> 100 µM (inactive)	> 100 µM (inactive)	> 100 µM (inactive)	> 100 µM (inactive)	> 100 µM (inactive)
Cc1c(C)c2c(c(N)c1C#N)C(=O)N(NC(=O)c1ccccc1)C2=O	> 100 µM (inactive)	> 100 µM (inactive)	> 100 µM (inactive)	> 100 µM (inactive)	> 100 µM (inactive)	> 100 µM (inactive)	> 100 µM (inactive)	> 100 µM (inactive)	24.8 µM (inactive)	> 100 µM (inactive)		> 100 µM (inactive)	> 100 µM (inactive)	> 100 µM (inactive)	> 100 µM (inactive)		> 100 µM (inactive)	> 100 µM (inactive)	> 100 µM (inactive)
N#C/C(N)=C(C#N)/N=C/NCCO	> 100 µM (inactive)	> 100 µM (inactive)	> 100 µM (inactive)	> 100 µM (inactive)	> 100 µM (inactive)	> 100 µM (inactive)		> 100 µM (inactive)	> 100 µM (inactive)	> 100 µM (inactive)	> 100 µM (inactive)	> 100 µM (inactive)	> 100 µM (inactive)	> 100 µM (inactive)	> 100 µM (inactive)	> 100 µM (inactive)	> 100 µM (inactive)	> 100 µM (inactive)	> 100 µM (inactive)
OCC1C(O)C(O)[C@@H]2SCCN12 (stereo partly specified)		> 100 µM (inactive)	> 100 µM (inactive)	> 100 µM (inactive)	> 100 µM (inactive)		> 100 µM (inactive)	> 100 µM (inactive)	> 100 µM (inactive)	> 100 µM (inactive)	> 100 µM (inactive)	> 100 µM (inactive)	> 100 µM (inactive)	> 100 µM (inactive)	> 100 µM (inactive)	> 100 µM (inactive)	> 100 µM (inactive)	> 100 µM (inactive)	> 100 µM (inactive)
O=[N+]([O-])C(=C(N1CCCCC1)N1CCCCC1)/C(Cl)=C(\Cl)[N+](=O)[O-]	2.46 µM (inactive)	6.95 µM (inactive)	4.86 µM (inactive)	1.14 µM (inactive)	2.61 µM (inactive)	1.67 µM (inactive)	1.31 µM (inactive)	5.01 µM (inactive)	1.84 µM (inactive)	5.01 µM (inactive)	23.2 µM (inactive)		17.9 µM (inactive)	21.5 µM (inactive)	16.8 µM (inactive)	15.6 µM (inactive)	18.7 µM (inactive)	3.79 µM (inactive)	1 µM (active)
COC(=O)c1ccccc1C1CN=NC12Cc1ccccc1C2=O (stereo unspecified)	> 100 µM (inactive)	49.2 µM (inactive)	50.7 µM (inactive)	41.7 µM (inactive)	> 100 µM (inactive)	> 100 µM (inactive)	> 100 µM (inactive)	42.6 µM (inactive)	41.3 µM (inactive)	> 100 µM (inactive)	> 100 µM (inactive)	47.4 µM (inactive)		> 100 µM (inactive)	77.6 µM (inactive)	> 100 µM (inactive)	> 100 µM (inactive)	40.5 µM (inactive)	68.5 µM (inactive)
CCCOC(=O)NC(C)C(=O)NC(CCC(=O)NC(CCCC(N)C(=O)O)C(=O)NC(C)C(=O)O)C(=O)O (stereo unspecified)	39.2 µM (inactive)	20.7 µM (inactive)	15.7 µM (inactive)	23 µM (inactive)	34.4 µM (inactive)	50.8 µM (inactive)		56.8 µM (inactive)	18.3 µM (inactive)	27.2 µM (inactive)		24.8 µM (inactive)	> 100 µM (inactive)	16.6 µM (inactive)	19.4 µM (inactive)	> 100 µM (inactive)	25.5 µM (inactive)	80.9 µM (inactive)	
CCOC(=O)C1=C(C)N(CC(C)C)C2(O)C(OC)CC(=O)C3C(=O)N(c4ccccc4)C(=O)C132 (stereo unspecified)	35.5 µM (inactive)	40.4 µM (inactive)	92.3 µM (inactive)	15.4 µM (inactive)	40.5 µM (inactive)	36 µM (inactive)	20.7 µM (inactive)	37 µM (inactive)	47 µM (inactive)	39 µM (inactive)		25 µM (inactive)	78.5 µM (inactive)	52.4 µM (inactive)	23.8 µM (inactive)	68.7 µM (inactive)	45.4 µM (inactive)	43.3 µM (inactive)	31.9 µM (inactive)
O=C(Nc1cccc(NC(=O)C(=O)C2CCC3=C(Sc4ccccc4N3)C2=O)n1)C(=O)C1CCC2=C(Sc3ccccc3N2)C1=O (stereo unspecified)	75.7 µM (inactive)	79.6 µM (inactive)	53 µM (inactive)	68.9 µM (inactive)	40.6 µM (inactive)	74.3 µM (inactive)	> 100 µM (inactive)	85.9 µM (inactive)	50.4 µM (inactive)	37.2 µM (inactive)	> 100 µM (inactive)	39.5 µM (inactive)	> 100 µM (inactive)	42.6 µM (inactive)	> 100 µM (inactive)		45.1 µM (inactive)	> 100 µM (inactive)	43.7 µM (inactive)
O=C(NC(Cc1c[nH]c2ccccc12)C(=O)O)/C(=C/c1ccccc1O)NC(=O)c1ccccc1 (stereo unspecified)	3.08 µM (inactive)	18.4 µM (inactive)	24.6 µM (inactive)	> 100 µM (inactive)	42.6 µM (inactive)	24.7 µM (inactive)	28.5 µM (inactive)	18.9 µM (inactive)	12.1 µM (inactive)	> 100 µM (inactive)	22.3 µM (inactive)	> 100 µM (inactive)	> 100 µM (inactive)	19.8 µM (inactive)	> 100 µM (inactive)		39.1 µM (inactive)		> 100 µM (inactive)
CC1(C)CCC[C@](C)([C@H]2CC[C@]3(C)[C@@H]2[C@H](O)C[C@@H]2[C@@]4(C)CC[C@H](O)C(C)(C)[C@@H]4[C@H](O)C[C@]23C)O1	9.73 µM (inactive)	13.8 µM (inactive)	12.9 µM (inactive)	3.78 µM (inactive)	15.9 µM (inactive)	14.3 µM (inactive)		12.2 µM (inactive)	10.6 µM (inactive)	10 µM (inactive)	16.9 µM (inactive)	2.16 µM (inactive)	12.8 µM (inactive)	10.5 µM (inactive)	11.9 µM (inactive)		12.3 µM (inactive)		5.48 µM (inactive)
